# According to patent publication US20030191188A1, “Method for treating migraine symptoms with ibuprofen and salts thereof” (priority 1999, published 2003):
# How the values were obtained:
# [1] = tested on: Subjects suffering from photophobia due to a migraine; assay: Treatment of photophobia due to a migraine, placebo-controlled subject study; format: in vivo; conditions: 200 or 400 milligrams of ibuprofen vs placebo; approximately 650 subjects; at time of two hours or longer
# Source text: FIG. 1 depicts the percentage of subjects with reduced photophobia over time after treatment with ibuprofen. Subjects suffering from photophobia due to a migraine were either given a placebo or treated with 200 or 400 milligrams of ibuprofen. Approximately 650 subjects were in the study. Some subjects were given placebos, while others were given either 200 or 400 milligrams of ibuprofen.
# [2] = tested on: Subjects suffering from phonophobia due to a migraine; assay: Treatment of phonophobia due to a migraine, placebo-controlled subject study; format: in vivo; conditions: 200 or 400 milligrams of ibuprofen in tablet form vs placebo; at time of two hours or longer
# Source text: FIG. 2 depicts the percentage of subjects with reduced phonophobia over time over time after treatment with ibuprofen. Subjects suffering from phonophobia due to a migraine were either given a placebo or treated with 200 or 400 milligrams of ibuprofen in tablet form.
structure (smiles),measurement,setting,value
CC(C)Cc1ccc(C(C)C(=O)O)cc1 (centres unmarked) [ibuprofen],"relief of photophobia (percentage of subjects with reduced photophobia over time, FIG. 1)",[1],effective in relieving photophobia
same,"relief of phonophobia (percentage of subjects with reduced phonophobia over time, FIG. 2); text prints photophobia",[2],effective in relieving photophobia
